Like-named read-outs stand apart in the source and are kept apart here.
Legend:
Assay type in all cases: biochemical
[1] = target: Asp-2 (Homo sapiens, UniProt P56817); test: Asp-2 inhibitory assay (FAM-[SEVNLDAEFK]-TAMRA fluorescence); conditions: Assay (I), 1 h at room temperature, pH 4.5
Method: (I) Asp-2 Inhibitory Assay
For each compound being assayed, in a 384 well plate, is added:— • a) 1 μl of a DMSO solution of the test compound (IC50 curve uses ten 1 in 2 serial dilutions from 500 μM) • b) 10 μl of substrate (FAM-[SEVNLDAEFK]-TAMRA) solution in buffer. This is prepared by diluting 2 ml of a 2 mM DMSO solution of the substrate into 400 ml of buffer (100 mM Sodium acetate pH=4.5, 1 l Milli-Q water, 0.06% Triton X-100 (0.5 ml/l), pH adjusted to 4.5 using glacial acetic acid). Aminomethyl fluorescein (FAM) and tetramethyl rhodamine (TAMRA) are fluorescent molecules which co-operate to emit fluorescence at 535 nm upon cleavage of the SEVNLDAEFK peptide. • c) 10 μl enzyme solution. This is prepared by diluting 16 ml of a 500 nM enzyme solution into 384 ml of buffer (prepared as above).
(§1) Blank wells (enzyme solution replaced by buffer) are included as controls on each plate. Wells are incubated for 1 h at room temperature and fluorescence read using a Tecan Ultra Fluorimeter/Spectrophotometer (485 nm excitation, 535 nm emission).

[2] = target: T1, Asp-1 (Homo sapiens, UniProt Q9Y5Z0); test: Asp-1 inhibitory assay (FAM-[SEVNLDAEFK]-TAMRA fluorescence); conditions: Assay (II), 2 h at room temperature, pH 4.5
T1 sequence (Q9Y5Z0 63-518): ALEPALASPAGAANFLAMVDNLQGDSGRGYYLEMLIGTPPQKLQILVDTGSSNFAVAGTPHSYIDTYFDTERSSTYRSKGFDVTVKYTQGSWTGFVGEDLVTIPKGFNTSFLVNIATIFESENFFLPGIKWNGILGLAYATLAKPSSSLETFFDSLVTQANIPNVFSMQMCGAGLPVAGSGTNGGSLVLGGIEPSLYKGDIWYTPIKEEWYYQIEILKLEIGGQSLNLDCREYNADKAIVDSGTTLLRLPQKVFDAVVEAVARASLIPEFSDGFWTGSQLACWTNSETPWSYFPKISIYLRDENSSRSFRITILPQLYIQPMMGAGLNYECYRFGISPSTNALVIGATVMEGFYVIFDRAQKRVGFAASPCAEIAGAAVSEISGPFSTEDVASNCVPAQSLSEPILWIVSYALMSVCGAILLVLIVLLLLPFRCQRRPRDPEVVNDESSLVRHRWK
Method: (II) Asps-1 Inhibitory Assay
(§2) For each compound being assayed, in a 384 well plate, is added:— • a) 1 μl of a DMSO solution of the test compound (IC50 curve uses ten 1 in 2 serial dilutions from 500 μM). • b) 10 μl of substrate (FAM-[SEVNLDAEFK]-TAMRA) solution in buffer. This is prepared by diluting 2 ml of a 2 mM DMSO solution of the substrate into 400 ml of buffer (100 mM Sodium acetate pH=4.5, 1 l Milli-Q water, 0.06% Triton X-100 (0.5 ml/l), pH adjusted to 4.5 using glacial acetic acid). • c) 10 μl enzyme solution. This is prepared by diluting 4 ml of a 6.3 μM enzyme solution into 496 ml of buffer (100 mM Sodium acetate pH=4.5, 40 mM sodium chloride, 900 ml Milli-Q water, 100 ml glycerol, 0.2% CHAPS (2 g/l), pH adjusted to 4.5 using glacial acetic acid).
Blank wells (enzyme solution replaced by buffer) are included as controls on each plate. Wells are incubated for 2 h at room temperature and fluorescence read using a Tecan Ultra Fluorimeter/Spectrophotometer (485 nm excitation, 535 nm emission).

[3] = target: Cathepsin D (Homo sapiens, UniProt P07339); test: Cathepsin D inhibitory assay (FAM-[SEVNLDAEFK]-TAMRA fluorescence); conditions: Assay (III), 1 h at room temperature, pH 4.5; read-out: inhibition (CatD)
Sequence of Cathepsin D (P07339 65-412, species assumed): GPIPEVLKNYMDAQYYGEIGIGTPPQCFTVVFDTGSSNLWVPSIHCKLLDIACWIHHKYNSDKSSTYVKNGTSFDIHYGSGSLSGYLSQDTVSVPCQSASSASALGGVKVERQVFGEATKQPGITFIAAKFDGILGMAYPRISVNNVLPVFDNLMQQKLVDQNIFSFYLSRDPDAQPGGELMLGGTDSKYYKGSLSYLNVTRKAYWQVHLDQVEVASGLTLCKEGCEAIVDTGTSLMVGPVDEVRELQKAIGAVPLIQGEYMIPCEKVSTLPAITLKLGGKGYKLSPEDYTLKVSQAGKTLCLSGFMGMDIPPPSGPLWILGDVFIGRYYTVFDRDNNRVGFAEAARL
Method: (III) Cathepsin D Inhibitory Assay
as §2, with “diluting 1.6” for “diluting 4”, “a 200 unit/ml (in 10 mM HCl)” for “a 6.3 μM”, “into 398.4” for “into 496”, “buffer (prepared as above).” for “buffer (100 mM Sodium acetate pH=4.5, 40 mM sodium chloride, 900 ml Milli-Q water, 100 ml glycerol, 0.2% CHAPS (2 g/l), pH adjusted to 4.5 using glacial acetic acid).”
as §1

Sequence of Asp-2 (P56817 46-501): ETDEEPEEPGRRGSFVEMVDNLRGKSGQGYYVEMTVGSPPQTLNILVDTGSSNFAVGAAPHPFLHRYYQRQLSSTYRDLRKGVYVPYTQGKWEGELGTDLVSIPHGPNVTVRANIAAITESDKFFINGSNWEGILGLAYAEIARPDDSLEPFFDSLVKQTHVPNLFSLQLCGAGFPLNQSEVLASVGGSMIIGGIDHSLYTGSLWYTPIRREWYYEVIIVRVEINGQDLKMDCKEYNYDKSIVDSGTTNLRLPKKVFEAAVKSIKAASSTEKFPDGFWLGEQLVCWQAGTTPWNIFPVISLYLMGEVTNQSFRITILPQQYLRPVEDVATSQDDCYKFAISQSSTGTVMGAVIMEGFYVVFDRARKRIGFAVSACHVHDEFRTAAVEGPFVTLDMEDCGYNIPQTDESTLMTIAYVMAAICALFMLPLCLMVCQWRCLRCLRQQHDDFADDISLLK

| SMILES | IC50 ([1]; read-out: Asp-2 IC50) [µM] | IC50 ([2]; read-out: Asp-1 IC50) [µM] | IC50 ([1]; read-out: inhibition (Asp-2)) [µM] | IC50 ([2]; read-out: inhibition (Asp-1)) [µM] | IC50 [3] [µM] |
| --- | --- | --- | --- | --- | --- |
| C[C@H](C[C@H](O)[C@H](Cc1ccccc1)NC(=O)c1cccc(S(C)(=O)=O)c1)C(=O)NCCC(C)(C)C [Example E1, N-[(1S,2S,4R)-1-Benzyl-4-(3,3-dimethylbutylcarbamoyl)-2-hydroxypentyl]-3-methanesulfonyl-benzamide] | 0.4 | 7.7 |  |  |  |
| C[C@H](C[C@H](O)[C@H](Cc1ccccc1)NC(=O)c1ccc(S(C)(=O)=O)s1)C(=O)NCCC(C)(C)C [Example E9, 5-Methanesulfonyl-thiophene-2-carboxylic acid [(1S,2S,4R)-1-benzyl-4-(3,3-dimethyl-butylcarbamoyl)-2-hydroxypentyl]-amide] |  |  | 0.18 | 3.3 | 9.6 |
| C#CC[C@H](C[C@H](O)[C@H](Cc1ccccc1)NC(=O)c1cccc(S(C)(=O)=O)c1)C(=O)NC1CC2CCC1C2 (stereo partly shown) [Example E2] | 0.33 | 5.57 |  |  |  |
